# Assay results as given in patent US20100298141A1, “SUBSTITUTED PYRIDINE N-OXIDE HERBICIDES” (E. I. DU PONT DE NEMOURS AND COMPANY, priority 2007, published 2010).
# How the values were obtained:
# [1] = tested on: barnyardgrass; test: Test A pre-/postemergence greenhouse test; format: in vivo, Echinochloa crus-galli; conditions: for Plant response rating, Barnyardgrass: 0 to 100 scale where 0 is no effect and 100 is complete control; for Barnyardgrass plant response rating: 0 to 100 scale
# Summary of the method: (§1)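 Greenhouse herbicide screen, pre- and postemergence in parallel. Soil: loam plus sand. Formulation: non-phytotoxic solvent mix with surfactant. Postemergence stage: one to two leaves, 2–10 cm height. Evaluation: visual injury, compared with untreated controls, about 10 days after treatment.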
# [2] = tested on: crabgrass; test: Test A pre-/postemergence greenhouse test; format: in vivo, Digitaria sanguinalis; conditions: for Plant response rating, Crabgrass, Large: 0 to 100 scale where 0 is no effect and 100 is complete control; for Crabgrass, Large plant response rating: 0 to 100 scale
# Summary of the method: as §1
# [3] = tested on: giant foxtail; test: Test A pre-/postemergence greenhouse test; format: in vivo, Setaria faberi; conditions: for Plant response rating, Foxtail, Giant: 0 to 100 scale where 0 is no effect and 100 is complete control; for Foxtail, Giant plant response rating: 0 to 100 scale
# Summary of the method: as §1
# [4] = tested on: velvetleaf; test: Test A pre-/postemergence greenhouse test; format: in vivo, Abutilon theophrasti; conditions: for Plant response rating, Velvetleaf: 0 to 100 scale where 0 is no effect and 100 is complete control; for Velvetleaf plant response rating: 0 to 100 scale
# Summary of the method: as §1
# [5] = tested on: blackgrass; test: Test C pre-/postemergence test; format: in vivo, Alopecurus myosuroides; conditions: for Plant response rating, Blackgrass: 31 g ai/ha, scale 0 to 100 (0 no effect, 100 complete control)
# Excerpt: (§2) Seeds of plant species selected from blackgrass (Alopecurus myosuroides), downy brome (Bromus tectorum), green foxtail (Setaria viridis), Italian ryegrass (Lolium multiflorum), wheat (Triticum aestivum), wild oat (Avena fatua), catchweed bedstraw (Galium aparine), Russian thistle (Salsola kali), […] (Cynodon dactylon), Surinam grass (Brachiaria decumbens), cocklebur (Xanthium strumarium), corn (Zea mays), crabgrass (Digitaria sanguinalis), woolly cupgrass (Eriochloa villosa), giant foxtail (Setaria faberii), Goosegrass (Eleusin indica), johnsongrass (Sorghum halepense), kochia (Kochia scoparia), lambsquarters (Chenopodium album), morningglory (Ipomoea coccinea), eastern black nightshade (Solanum ptycanthum), yellow nutsedge (Cyperus esculentus), pigweed (Amaranthus retroflexus), common ragweed (Ambrosia elation), soybean (Glycine max), common (oilseed) sunflower (Helianthus annuus), and velvetleaf (Abutilon theophrasti) were planted and treated preemergence with test chemicals formulated in a non-phytotoxic solvent mixture which included a surfactant. At the same time, plants selected from these crop and weed species and also winter barley (Hordeum vulgare), canarygrass (Phalaris minor), and chickweed (Stellaria media) were treated with postemergence applications of some of the test chemicals formulated in the same manner. Plants ranged in height from 2 to 18 cm (1- to 4-leaf stage) for postemergence treatments. […] At time of treatment, test pots were flooded to 3 cm above the soil surface, treated by application of test compounds directly to the paddy water, and then maintained at that water depth for the duration of the test. […] A dash (-) response means no test result.
# [6] = tested on: downy brome; test: Test C pre-/postemergence test; format: in vivo, Bromus tectorum; conditions: for Plant response rating, Bromegrass, Downy: 31 g ai/ha, scale 0 to 100 (0 no effect, 100 complete control)
# Excerpt: as §2
# [7] = tested on: green foxtail; test: Test C pre-/postemergence test; format: in vivo, Setaria viridis; conditions: for Plant response rating, Foxtail, Green: 31 g ai/ha, scale 0 to 100 (0 no effect, 100 complete control)
# Excerpt: as §2
# [8] = tested on: Surinam grass; test: Test C pre-/postemergence test; format: in vivo, Brachiaria decumbens; conditions: for Plant response rating, Surinam Grass: 31 g ai/ha, scale 0 to 100 (0 no effect, 100 complete control)
# Excerpt: as §2
# [9] = tested on: woolly cupgrass; test: Test C pre-/postemergence test; format: in vivo, Eriochloa villosa
# Excerpt: as §2
# [10] = tested on: pigweed; test: Test C pre-/postemergence test; format: in vivo, Amaranthus retroflexus
# Excerpt: as §2
# [11] = tested on: common ragweed; test: Test C pre-/postemergence test; format: in vivo, Ambrosia elation; conditions: for Plant response rating, Ragweed: 31 g ai/ha, scale 0 to 100 (0 no effect, 100 complete control)
# Excerpt: as §2
# [12] = tested on: soybean; test: Test C pre-/postemergence test; format: in vivo, Glycine max
# Excerpt: as §2
# [13] = tested on: velvetleaf; test: Test C pre-/postemergence test; format: in vivo, Abutilon theophrasti; conditions: for Plant response rating, Velvetleaf: 31 g ai/ha, scale 0 to 100 (0 no effect, 100 complete control)
# Excerpt: as §2
# [14] = tested on: duck salad; test: Test C flooded paddy test; format: in vivo, Heteranthera limosa; conditions: Flood
# Summary of the method: (§3)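 In-water treatment: compound dosed into 3 cm flood over soil, water level unchanged throughout. Controls run alongside; visual assessment at day 13–15.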
# [15] = tested on: barnyardgrass; test: Test C flooded paddy test; format: in vivo, Echinochloa crus-galli; conditions: Flood
# Summary of the method: as §3
# [16] = Postemergence, 500 g ai/ha, 0 is no effect, 100 is complete control
# [17] = Preemergence, 125 g ai/ha, 0 no effect, 100 complete control
# [18] = 62 g ai/ha, Preemergence, scale 0 to 100
# [19] = 125 g ai/ha, preemergence, scale 0 (no effect) to 100 (complete control)
# [20] = preemergence, 250 g ai/ha, scale 0 (no effect) to 100 (complete control)
# [21] = 62 g ai/ha, scale 0 to 100 (0 no effect, 100 complete control)
# [22] = 250 g ai/ha, scale 0 to 100, 0 no effect, 100 complete control, 13 to 15 days
# [23] = Preemergence, 31 g ai/ha, scale 0 to 100 (0 no effect, 100 complete control)
compound,measurement,setting,value
CCn1nc(C(F)(F)F)c(C[S+]([O-])c2cc(C)cc[n+]2[O-])c1OCC(F)(F)F (racemic) [Compound 66],"Plant response rating, Barnyardgrass","[1]; Postemergence, 125 g ai/ha",70
same,Barnyardgrass plant response rating,[1]; [16],90
same,Barnyardgrass plant response rating,[1]; [17],60
same,"Plant response rating, Barnyardgrass","[1]; Preemergence, 500 g ai/ha",100
same,"Plant response rating, Crabgrass, Large","[2]; Postemergence, 125 g ai/ha",50
same,"Crabgrass, Large plant response rating",[2]; [16],90
same,"Crabgrass, Large plant response rating",[2]; [17],80
same,"Plant response rating, Crabgrass, Large","[2]; Preemergence, 500 g ai/ha",100
same,"Plant response rating, Foxtail, Giant","[3]; Postemergence, 125 g ai/ha",80
same,"Foxtail, Giant plant response rating",[3]; [16],90
same,"Foxtail, Giant plant response rating",[3]; [17],90
same,"Plant response rating, Foxtail, Giant","[3]; Preemergence, 500 g ai/ha",100
same,"Plant response rating, Velvetleaf","[4]; Postemergence, 125 g ai/ha",60
same,Velvetleaf plant response rating,[4]; [16],80
same,Velvetleaf plant response rating,[4]; [17],60
same,"Plant response rating, Velvetleaf","[4]; Preemergence, 500 g ai/ha",100
same,Blackgrass plant response rating,[5]; [18],70
same,Blackgrass plant response rating,[5]; [19],100
same,"Plant response rating, Blackgrass",[5]; Preemergence,50
same,Blackgrass plant response rating,[5]; [20],100
same,"Bromegrass, Downy plant response rating",[6]; [18],90
same,"Bromegrass, Downy plant response rating",[6]; [19],100
same,"Plant response rating, Bromegrass, Downy",[6]; Preemergence,70
same,"Bromegrass, Downy plant response rating",[6]; [20],100
same,"Foxtail, Green plant response rating",[7]; [18],100
same,"Foxtail, Green plant response rating",[7]; [19],100
same,"Plant response rating, Foxtail, Green",[7]; Preemergence,85
same,"Foxtail, Green plant response rating",[7]; [20],100
same,Surinam Grass plant response rating,[8]; [18],100
same,Surinam Grass plant response rating,[8]; [19],100
same,"Plant response rating, Surinam Grass",[8]; Preemergence,100
same,Surinam Grass plant response rating,[8]; [20],100
same,"Cupgrass, Woolly plant response rating",[9]; [18],85
same,"Cupgrass, Woolly plant response rating",[9]; [19],100
same,"Cupgrass, Woolly plant response rating",[9]; [20],100
same,Pigweed plant response rating,[10]; [18],30
same,Pigweed plant response rating,[10]; [19],100
same,Pigweed plant response rating,[10]; [20],100
same,Ragweed plant response rating,[11]; [18],100
same,"Plant response rating, Ragweed",[11]; Preemergence,100
same,Ragweed plant response rating,[11]; [20],100
same,Soybean plant response rating,[12]; [19],80
same,Velvetleaf plant response rating,[13]; [18],90
same,Velvetleaf plant response rating,[13]; [19],95
same,"Plant response rating, Velvetleaf",[13]; Preemergence,70
same,Velvetleaf plant response rating,[13]; [20],100
same,"Plant response rating, Ducksalad",[14]; [21],70
same,"Plant response rating, Ducksalad",[14]; [22],90
same,"Plant response rating, Barnyardgrass",[15]; [21],10
same,"Plant response rating, Barnyardgrass",[15]; [22],70
CCn1nc(C(F)(F)F)c(CS(=O)(=O)c2cccc[n+]2[O-])c1OCC(F)(F)F [Compound 63],"Plant response rating, Barnyardgrass","[1]; Postemergence, 125 g ai/ha",90
same,Barnyardgrass plant response rating,[1]; [16],90
same,Barnyardgrass plant response rating,[1]; [17],90
same,"Plant response rating, Barnyardgrass","[1]; Preemergence, 500 g ai/ha",100
same,"Plant response rating, Crabgrass, Large","[2]; Postemergence, 125 g ai/ha",60
same,"Crabgrass, Large plant response rating",[2]; [16],90
same,"Crabgrass, Large plant response rating",[2]; [17],80
same,"Plant response rating, Crabgrass, Large","[2]; Preemergence, 500 g ai/ha",100
same,"Plant response rating, Foxtail, Giant","[3]; Postemergence, 125 g ai/ha",80
same,"Foxtail, Giant plant response rating",[3]; [16],90
same,"Foxtail, Giant plant response rating",[3]; [17],100
same,"Plant response rating, Foxtail, Giant","[3]; Preemergence, 500 g ai/ha",100
same,"Plant response rating, Velvetleaf","[4]; Postemergence, 125 g ai/ha",60
same,Velvetleaf plant response rating,[4]; [16],80
same,Velvetleaf plant response rating,[4]; [17],60
same,"Plant response rating, Velvetleaf","[4]; Preemergence, 500 g ai/ha",100
same,Blackgrass plant response rating,[5]; [18],100
same,Blackgrass plant response rating,[5]; [19],100
same,"Plant response rating, Blackgrass",[5]; Preemergence,70
same,Blackgrass plant response rating,[5]; [20],100
same,"Bromegrass, Downy plant response rating",[6]; [18],70
same,"Bromegrass, Downy plant response rating",[6]; [19],98
same,"Plant response rating, Bromegrass, Downy",[6]; Preemergence,40
same,"Bromegrass, Downy plant response rating",[6]; [20],100
same,"Foxtail, Green plant response rating",[7]; [18],100
same,"Foxtail, Green plant response rating",[7]; [19],100
same,"Plant response rating, Foxtail, Green",[7]; Preemergence,95
same,"Foxtail, Green plant response rating",[7]; [20],100
same,Surinam Grass plant response rating,[8]; [18],100
same,Surinam Grass plant response rating,[8]; [19],100
same,"Plant response rating, Surinam Grass",[8]; Preemergence,100
same,Surinam Grass plant response rating,[8]; [20],100
same,"Cupgrass, Woolly plant response rating",[9]; [18],85
same,"Cupgrass, Woolly plant response rating",[9]; [19],85
same,"Plant response rating, Cupgrass, Woolly",[9]; [23],0
same,Pigweed plant response rating,[10]; [18],100
same,Pigweed plant response rating,[10]; [19],100
same,"Plant response rating, Pigweed",[10]; [23],50
same,Pigweed plant response rating,[10]; [20],100
same,Ragweed plant response rating,[11]; [18],100
same,Ragweed plant response rating,[11]; [19],100
same,"Plant response rating, Ragweed",[11]; Preemergence,90
same,Ragweed plant response rating,[11]; [20],100
same,Soybean plant response rating,[12]; [18],5
same,"Plant response rating, Soybean",[12]; [23],0
same,Soybean plant response rating,[12]; [20],50
same,Velvetleaf plant response rating,[13]; [18],80
same,Velvetleaf plant response rating,[13]; [19],85
same,"Plant response rating, Velvetleaf",[13]; Preemergence,50
same,Velvetleaf plant response rating,[13]; [20],100
same,"Plant response rating, Ducksalad",[14]; [21],0
same,"Plant response rating, Ducksalad",[14]; [22],75
same,"Plant response rating, Barnyardgrass",[15]; [21],40
same,"Plant response rating, Barnyardgrass",[15]; [22],40
